Experiments:
Wild type explants = experiment: Regenerated shoots selected by compounds in addition to mannose, wild type; format: cell-based; settings: genotype Wild type
[1] = system: explants with the mannose 6-phosphate isomerase gene from E. coli; experiment: Regenerated shoots selected by compounds in addition to mannose, M-6-P-isomerase; format: cell-based; settings: genotype M-6-P-isomerase
[2] = system: leaf discs of tobacco with (GUS+) introduced β-glucuronidase genes; format: cell-based, Nicotiana tabacum 'Wisconsin 38'; settings: test compounds at several concentrations up to 250 μM in MSO
[3] = system: leaf discs of tobacco without (GUS-) introduced β-glucuronidase genes; format: cell-based, Nicotiana tabacum 'Wisconsin 38'; settings: test compounds at several concentrations up to 250 μM in MSO
[4] = target: β-glucuronidase from E. coli (Escherichia coli, UniProt P05804); experiment: Hydrolysis by β-glucuronidase (GUS), HPLC/TLC; format: biochemical; settings: for Hydrolysis by β-glucuronidase (GUS), result in words: 50 mM sodium phosphate buffer pH 7.0, 37° C., HPLC/TLC
Description: […] […] This confirms the identity of the product as a conjugate of BA and β-D-glucuronic acid.
[…] The presence of hydrolysis products is then determined using HPLC and TLC.

[5] = system: tobacco leaf disc containing an introduced β-glucuronidase gene; experiment: Shoot regeneration with sterol glucuronides on tridemorph substrate; format: cell-based; settings: sitosteryl glucuronide 12.5 mg/l and/or cholesteryl glucuronide 50 mg/l; tridemorph 0.1 mM and BA3GN sodium salt (5 mM); 30 days
[6] = system: hypocotyl explants of oilseed rape; experiment: Transgenic callus from oilseed rape, second section of Table 19; format: cell-based
Description: (§1) Experiments were performed as described in Example 11, although with certain modifications. The plant species used were the very recalcitrant breeding lines "V486" of winter oil seed rape and "S487" of summer oilseed rape. Seeds were sterilized and germinated as described in Example 16. Hypocotyls were used as explants and were inoculated and co-cultured as described in Example 11. After co-cultivation the explants were transferred to MSO substrate containing 0.1 mg/l naphthylacetic acid, 0.01 mg/l gibberellic acid (GA3), 500 mg/l carbenicillin, 50 mg/l kanamycin sulphate and 6.0 g/l agarose. The substrate contained in addition either 1 mg/l BA or 3.75, 7.5 or 15.0 mg/l BA3GN sodium salt. The pH was adjusted to 5.8. The Agrobacterium used contained in its T-DNA a GUS gene and a neomycinphosphotransferase II gene driven by 35S promoters. GUS assays were performed after 8 weeks and callus showing an intense blue staining in most of the callus cells was registered as being GUS.

[7] = system: sugar beet cotyledon explants; experiment: Transformation of sugar beet, positive and negative selection; format: cell-based; settings: 400 mg/l kanamycin sulphate + 1 mg/l BAP (100 explants) or + 15 mg/l BA3GN (177 explants)
Source text: Seeds were germinated for 4 days in darkness on a substrate containing 0.7 g/l of agarose and 2 g/l of sucrose. The seedlings were then transferred to a Nunc container containing 1/2×MSO substrate and cultured for 3 days in the light. The cotyledons were removed from the seedlings, and the cotyledon explants were then brushed on the petiole with a small brush containing an Agrobacterium suspension, the Agrobacterium containing 35S-NPTII and 35S-GUS (OD 660=0.1). The cotelydons were then co-cultivatedfor 4 days on a substrate containing 1/10 MSO substrate and 200 μM acetosyringone. […] The regenerated shoots were then transferred to containers containing the same substrate. After 52 days on this substrate all the shoots were transferred to MSO substrate supplemented with 800 mg/l carbenicillin, 25 mg/l vancomycin and 0.1 mg/l BA. After 14 days GUS assays as described in Example 3 were performed on the selected plant material.

[8] = system: hypocotyl explants of winter oil seed rape V486; experiment: Transgenic callus from oilseed rape, winter type V486; format: cell-based; settings: 50 mg/l kanamycin sulphate
Description: as §1

[9] = target: T1, GUS activity in plant tissue (Escherichia coli, UniProt P05804); experiment: Histological GUS reaction (X-gluc) in plant species with saccharo 1,4-lactone; format: cell-based; settings: saccharo 1,4-lactone 10 mM, pH 3-8, transgenic (1), GUS gene from E. coli
T1 construct: from tissue; host or cells: leaves of a number of plant species

[10] = system: GUS activity in plant tissue; experiment: as above; format: cell-based; settings: saccharo 1,4-lactone 10 mM, pH 3-8
immature maize embryos = experiment: Mannose selection of bombarded immature maize embryos; format: cell-based; settings: selection on 10 g/L D-mannose for 3 weeks; 420 embryos
[11] = system: plant material transgenic for the mannose 6-phosphate isomerase gene; experiment: Effect of methyl-3-O-glucose on selection of transgenic shoots on mannose; format: cell-based; settings: mannose 15 g/l; MOG 0 g/l; no sucrose
Source text: The transformed plant material is transgenic for the mannose 6-phosphate isomerase gene. After 21 days the selected shoots are harvested.

[12] = system: non-transformed potato stem segments; experiment: Inhibition by mannose of regeneration of shoots; format: cell-based, Solanum tuberosum
Description: This substrate is referred to hereafter as "selection/regeneration substrate". Regenerated plants are produced as described above, except that the shoot segments are not co-cultured with bacteria and the washing procedure consequential thereon is omitted. […] In general, mannose cannot be used as a carbohydrate source in most plant species. When mannose is added to plants it is metabolized and mannose 6-phosphate accumulates. Mannose 6-phosphate can be converted to fructose 6-phosphate by mannose 6-phosphate isomerase, the amount converted being dependent upon the activity of the isomerase. Such fructose 6-phosphate may be utilized by plants, but in principal high levels of mannose (whether or not an alternative carbohydrate source is available) are toxic to plants.

maize protoplasts = experiment: Mannose selection in maize protoplast PEG-mediated transformation; format: cell-based; settings: 2% mannose for one to two weeks; 47/17 million protoplasts
maize callus cultures = settings: callus cultures of 4 maize lines; 0-20 g/L; three weeks

Chain of β-glucuronidase from E. coli (P05804 whole entry, looked up): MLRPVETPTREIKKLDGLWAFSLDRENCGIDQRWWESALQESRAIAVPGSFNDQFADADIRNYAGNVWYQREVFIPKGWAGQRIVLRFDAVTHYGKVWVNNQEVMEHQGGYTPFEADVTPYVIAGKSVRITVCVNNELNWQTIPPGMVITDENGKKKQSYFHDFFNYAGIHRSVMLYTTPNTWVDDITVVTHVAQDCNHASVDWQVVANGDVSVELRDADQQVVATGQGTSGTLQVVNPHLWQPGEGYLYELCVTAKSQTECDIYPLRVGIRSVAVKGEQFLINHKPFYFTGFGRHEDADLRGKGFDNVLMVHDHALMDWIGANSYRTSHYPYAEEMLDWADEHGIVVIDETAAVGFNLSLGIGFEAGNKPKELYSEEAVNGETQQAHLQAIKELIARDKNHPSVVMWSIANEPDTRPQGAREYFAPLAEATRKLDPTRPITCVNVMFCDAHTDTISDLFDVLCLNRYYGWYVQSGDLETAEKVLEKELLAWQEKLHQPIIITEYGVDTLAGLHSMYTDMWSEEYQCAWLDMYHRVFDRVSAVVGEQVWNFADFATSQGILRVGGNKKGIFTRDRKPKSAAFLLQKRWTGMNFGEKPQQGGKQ
T1 sequence (P05804 whole entry): as the sequence (P05804 whole entry, looked up) above

N[C@@H]1C(O)O[C@H](CO)[C@@H](O)[C@@H]1O (stereo partly drawn) [D-mannosamine]
Number of regenerated shoots per explant (Wild type explants): 0
Number of regenerated shoots per explant [1]: 0.8

O=C([O-])[C@H]1O[C@@H](n2cnc3c(NCc4ccccc4)ncnc32)[C@H](O)[C@@H](O)[C@@H]1O.[Na+] [BA9GN sodium salt, 9-β-D-glucopyranuronosyl-6-benzylaminopurine, sodium salt]
acid hydrolysis (Chemical stability; 1 mg/ml, 1M hydrochloric acid at 100° C. overnight, TLC): acid-labile
Shoot formation, GUS+ [2]: - ("-" means no shoot formation at concentrations below 250 μM)
Shoot formation, GUS- [3]: - ("-" means no shoot formation at concentrations below 250 μM)
Hydrolysis by β-glucuronidase (GUS), result in words [4]: no detectable production of BA
production of BA after incubation with β-glucuronidase ([4]; 18 hours at 37° C.): < 1%

CC[C@H](CC[C@@H](C)[C@H]1CC[C@H]2[C@@H]3CC=C4C[C@@H](O[C@@H]5O[C@H](C(=O)O)[C@@H](O)[C@H](O)[C@H]5O)CC[C@]4(C)[C@H]3CC[C@]12C)C(C)C [Sitosteryl-β-D-glucuronide, β-sitosteryl-β-D-glucuronidide]
Shoots per leaf disc [5]: 2.8

O=C([O-])[C@H]1O[C@@H](n2cnc(NCc3ccccc3)c3ncnc2-3)[C@H](O)[C@@H](O)[C@@H]1O.[Na+]
GUS+ callus per callus ([6]; BA3GN 3.75 mg/l): 33.3%
GUS+ callus per explant ([6]; BA3GN 3.75 mg/l): 1.7%
Explants with callus ([6]; BA3GN 3.75 mg/l, 50 mg/l kanamycin sulphate): 5.2%
Explants with callus ([6]; BA3GN 7.5 mg/l): 9.2%
GUS+ callus per callus ([6]; BA3GN 7.5 mg/l): 25.0%
GUS+ callus per explant ([6]; BA3GN 7.5 mg/l): 2.3%
Explants with callus ([6]; BA3GN 15.00 mg/l): 6.3%
GUS+ callus per callus ([6]; BA3GN 15.00 mg/l): 14.2%
GUS+ callus per explant ([6]; BA3GN 15.00 mg/l): 0.9%
GUS+ Shoots [7]: 4
GUS+ shoots (%) [7]: 2.3%
Shoot formation, GUS+ [2]: + ("+" means shoot formation at concentrations below 250 μM)
GUS+ callus per callus ([8]; BA3GN 3.75 mg/l): 7.1%
GUS+ callus per explant ([8]; BA3GN 3.75 mg/l): 1.4%
Explants with callus ([8]; BA3GN 3.75 mg/l, 8 weeks): 19.0%
Explants with callus ([8]; BA3GN 7.5 mg/l): 23.0%
GUS+ callus per callus ([8]; BA3GN 7.5 mg/l): 5.9%
GUS+ callus per explant ([8]; BA3GN 7.5 mg/l): 1.4%
Explants with callus ([8]; BA3GN 15.00 mg/l): 30.6%
GUS+ callus per callus ([8]; BA3GN 15.00 mg/l): 7.5%
GUS+ callus per explant ([8]; BA3GN 15.00 mg/l): 2.3%
Shoot formation, GUS- [3]: + ("+" means shoot formation at concentrations below 250 μM)
Hydrolysis by β-glucuronidase (GUS), result in words [4]: virtually complete removal
removal of the glucuronide by GUS ([4]; 2500 Fishman units, 12 hours, 37° C., HPLC and TLC): > 99%

CC(C)CCC[C@@H](C)[C@H]1CC[C@H]2[C@@H]3CC=C4C[C@@H](O[C@@H]5O[C@H](C(=O)O)[C@@H](O)[C@H](O)[C@H]5O)CC[C@]4(C)[C@H]3CC[C@]12C [Choesteryl-β-D-glucuronide, cholesteryl-β-D-glucuronide]
Shoots per leaf disc [5]: 0.3

O=P(O)(O)OC[C@H]1OC(O)[C@@H](O)[C@@H](O)[C@@H]1O (stereo partly drawn) [D-mannose-6-phosphate]
Number of regenerated shoots per explant (Wild type explants): 0
Number of regenerated shoots per explant [1]: 0.7

O=C(O)[C@@H](O)[C@H]1OC(=O)[C@H](O)[C@H]1O [Saccharo 1,4-lactone]
Histological GUS reaction ([9]; Sugar beet): (+)
Histological GUS reaction ([9]; Tobacco): 0
Histological GUS reaction ([10]; Oilseed rape): 0
Histological GUS reaction ([10]; Oxalis, stem or petiole): 0
Histological GUS reaction ([10]; Pea, stem or petiole): 0
Histological GUS reaction ([10]; Rhubarb, stem or petiole): 0
Histological GUS reaction ([10]; Sitka spruce, embryogenic callus): 0
Histological GUS reaction ([10]; Sugar beet, transgenic (2), NPT only): 0
Histological GUS reaction ([10]; Sugar beet, wild type): 0
Histological GUS reaction ([10]; Tobacco): 0
Histological GUS reaction ([10]; Tobacco, transgenic (2), NPT only): 0
Histological GUS reaction ([10]; Wheat, albino): 0
stability at the pH of the substrate (Chemical stability; equilibrium with saccharic acid): not a stable compound

c1ccc(CNc2ncnc3nc[nH]c23)cc1 [BA, N^6 -benzyladenine]
Explants with callus ([6]; BA 1 mg/l): 0%
GUS+ callus per callus ([6]; BA 1 mg/l): 0%
GUS+ callus per explant ([6]; BA 1 mg/l): 0%
GUS+ Shoots [7]: 0
GUS+ shoots (%) [7]: 0%
Shoot formation, GUS+ [2]: + ("+" means shoot formation at concentrations below 250 μM)
Explants with callus ([8]; BA 1 mg/l): 0%
GUS+ callus per callus ([8]; BA 1 mg/l): 0%
GUS+ callus per explant ([8]; BA 1 mg/l): 0%
Shoot formation, GUS- [3]: + ("+" means shoot formation at concentrations below 250 μM)

O=C[C@@H](O)[C@@H](O)[C@H](O)[C@H](O)CO [mannose, D-mannose]
% transformation (immature maize embryos): 2.9%
GUS+ shoots/explant [11]: 0
GUS+ shoots/sel. shoots (%) [11]: 0%
Number of regenerated shoots per explant (Wild type explants): 0
Regenerated shoots/explant (%) ([12]; sucrose 0 g/l, mannose 5 g/l, up to 40th day): 0%
Regenerated shoots/explant (%) ([12]; sucrose 0 g/l, mannose 10 g/l): 0%
Regenerated shoots/explant (%) ([12]; sucrose 0 g/l, mannose 20 g/l): 0%
Regenerated shoots/explant (%) ([12]; sucrose 10 g/l, mannose 5 g/l): 3%
Regenerated shoots/explant (%) ([12]; sucrose 10 g/l, mannose 10 g/l): 0%
Regenerated shoots/explant (%) ([12]; sucrose 10 g/l, mannose 20 g/l): 0%
Regenerated shoots/explant (%) ([12]; sucrose 20 g/l, mannose 5 g/l): 0%
Regenerated shoots/explant (%) ([12]; sucrose 20 g/l, mannose 10 g/l): 0%
Regenerated shoots/explant (%) ([12]; sucrose 20 g/l, mannose 20 g/l): 0%
stable transformation frequency (maize protoplasts): 0.00028%
utilization as carbohydrate source, in words (maize callus cultures): cannot be utilized as the sole carbohydrate source
Number of regenerated shoots per explant [1]: 1.1
